The values that follow come from patent US7179614B2, “Screening methods to identify compounds that modulate type I phosphodiesterase (PDE) activity” (Mount Sinai School of Medicine, priority 2000, dated 2007).

The subject of one assay is PDE 1. The conditions noted are these: Yan et al., J. Biol. Chem. 1996; cited from earlier work.
The test system of assay [1] is PDE1A present in fractions 6 and 11. Put plainly: PDE assay on anion exchange fractions 6 and 11 of taste tissue. The class given is biochemical, bovine. On the procedure:
(§1) Preparation of taste extract. 1–2 gm circumvallate taste papillae or fungiform papillae from fresh bovine tongues were dissected and homogenized in a buffer containing 20 mMTris-Cl pH 7.5, 1 mM EDTA, 1 mM DTT, 10% glycerol, 10 μg/ml leupeptin, 10 μg/ml aprotinin, 100 μM AEBSF and 10 μg/ml pepstatin. Homogenization was carried out using a Polytron homogenizer. The homogenate was first spun at 2500×g for 10 minutes at 4° C. and the resulting supernatant was spun at 100,000×g for 30 minutes at 4° C. The supernatant of the second spin was checked for PDE activity and fractionated by anion exchange chromatography.
(§2) Anion Exchange Chromatography. Supernatant prepared from taste papillae was loaded at 1 ml/min on a DEAE-10 anion exchange column which had been equilibrated with buffer A (20 mM Tris-HCl pH 7.5, 2 mM EDTA, 20 mM β-mercapto ethanol). The column was washed in buffer A for 15 minutes or until protein was no longer detected in the buffer. Bound protein activity was eluted at a flow rate of 2 ml/min with a linear gradient (0–100%) of buffer B (buffer A+1 M NaCl) over 45 minutes Fractions were collected at 4° C. and assayed for PDE Activity. Aliquots of each fraction were boiled in sample buffer for Western blot analysis.
(§3) PDE Assays and CaM Affinity on Beads. PDE assays followed established procedures (Sonnenburg et al., Methods 1998, 14:3–19). All assays were performed at 30° C. using either 1 μM cAMP or between 0.2 and 1 μM cGMP as substrate in the presence of 1 mM EGTA (basal), 1 mM CaCl2 plus 4 μg/ml CaM (Ca^2+/CaM) or 100 μM effector activation peptide (Gαt-rod) peptide.
Specificity of the calmodulin affinity beads was checked by doing an affinity chromatography purification in the presence of 2 mM EGTA instead of CaCl2. The beads were incubated with the appropriate fractions at 4° C. for 1 hour, then spun for 2 minutes and the supernatant and pellet kept separately. The beads were then washed in the same buffer and resuspended in the presence of protease inhibitors. PDE activity was checked on the beads and in the supernatant. CaCl2 was compensated in the PDE assays when the CaM affinity was done in presence of excess EGTA.

The next assay has as its target T1, PDE1A1 (Bos taurus, UniProt P14100).
T1 construct: made in house; host or cells: HEK 293 cells, transient transfection, sonicated lysate
Put plainly: PDE assay of recombinant PDE over-expressed in HEK-293 cells. It is filed as biochemical. The following applies: HEK-293 cell homogenate; cGMP substrate; 100 μM peptide or 1 mM CaCl2 and 4 μg/ml CaM. On the procedure: as §3
(§4) Over-expression and Assay of Recombinant PDEs. HEK 293 cells were cultured in Eagle's MEM with 2 mM […], Earle's balanced salt solution, 1.5 g/L sodium bicarbonate, 0.1 mM non-essential amino acids, 1 mM sodium pyruvate, and 10% heat-inactivated fetal calf serum. HEK 293 cells were seeded at 0.5×10^6 per well in a 6 well dish. After 24 hours, cells were transfected with DNA constructs using Gene Porter (Gene Therapy Systems), a lipid-based transfection reagent. Cells were transfected with 6 μg DNA (PDE1A1, PDE1A2 or PDE1C3) and 30 μl transfection reagent in serum free media in a volume of 1 ml. After 5 hours, the cells were supplemented with 1 ml media containing twice serum. 24 hours later, the cells were harvested by rinsing twice with PBS, scraping the cells into 200 μl of buffer containing 20 mM Tris-Cl pH 7.5, protease inhibitors (Sigma P- 8340), 1 mM 4-(2-aminoethyl) benzenesulfonyl fluoride (AEBSF), 15 μM pepstatin A, 14 μM trans-epoxysuccinyl-L-leucylamido(4-guanidino) butane (E-64), 40 μM bestatin, 22 μM leupeptin, and 0.8 μM aprotinin. Cells were sonicated in 3 five second bursts at approximately 10 Watts, and the lysates were used as the source of enzyme in the PDE assay.

The next assay has as its target T2, PDE1A2 (Bos taurus, UniProt P14100).
T2 construct: made in house; host or cells: HEK 293 cells, transient transfection, sonicated lysate
The description is as above. The class given is biochemical. The following applies: HEK-293 cell homogenate; cGMP substrate; 100 μM peptide or 1 mM CaCl2 and 4 μg/ml CaM. On the procedure:
as §3, §4

The target of a further assay is T3, PDE1C3 (Homo sapiens, UniProt Q14123).
T3 construct: made in house; host or cells: HEK 293 cells, transient transfection, sonicated lysate
The assay is described as above. It is filed as biochemical. The following applies: HEK-293 cell homogenate; cGMP substrate; 100 μM peptide or 1 mM CaCl2 and 4 μg/ml CaM. On the procedure: as §3, §4

Assay [2] deals with PDEs in bovine taste tissue fractions. Put plainly: PDE assay across anion exchange fractions of taste papillae extract. The class given is biochemical. The following applies: 100 μM peptide or 1 mM CaCl2 and 4 μg/ml CaM; for stimulation of cGMP hydrolytic activity: 1 μM cGMP; for stimulation of cAMP hydrolysis: 1 μM cAMP. As for the experimental part:
as §1, §2, §3

T2 sequence (P14100 whole entry): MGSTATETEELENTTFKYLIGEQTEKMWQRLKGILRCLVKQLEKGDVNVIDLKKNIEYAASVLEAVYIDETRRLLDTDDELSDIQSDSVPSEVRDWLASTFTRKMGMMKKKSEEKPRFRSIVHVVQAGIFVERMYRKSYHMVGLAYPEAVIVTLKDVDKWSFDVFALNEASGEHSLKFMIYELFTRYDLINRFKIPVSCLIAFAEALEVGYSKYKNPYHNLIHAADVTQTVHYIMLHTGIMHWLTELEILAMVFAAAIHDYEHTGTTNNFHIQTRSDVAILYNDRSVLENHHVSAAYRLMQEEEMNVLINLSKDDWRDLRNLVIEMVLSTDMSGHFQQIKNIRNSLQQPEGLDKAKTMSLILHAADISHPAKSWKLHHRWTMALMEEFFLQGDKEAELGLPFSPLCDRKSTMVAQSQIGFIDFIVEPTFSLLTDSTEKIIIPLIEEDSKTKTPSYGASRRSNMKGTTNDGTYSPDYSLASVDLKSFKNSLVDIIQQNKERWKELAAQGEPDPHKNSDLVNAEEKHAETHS
T1 sequence (P14100 1-514 isoform P14100-2): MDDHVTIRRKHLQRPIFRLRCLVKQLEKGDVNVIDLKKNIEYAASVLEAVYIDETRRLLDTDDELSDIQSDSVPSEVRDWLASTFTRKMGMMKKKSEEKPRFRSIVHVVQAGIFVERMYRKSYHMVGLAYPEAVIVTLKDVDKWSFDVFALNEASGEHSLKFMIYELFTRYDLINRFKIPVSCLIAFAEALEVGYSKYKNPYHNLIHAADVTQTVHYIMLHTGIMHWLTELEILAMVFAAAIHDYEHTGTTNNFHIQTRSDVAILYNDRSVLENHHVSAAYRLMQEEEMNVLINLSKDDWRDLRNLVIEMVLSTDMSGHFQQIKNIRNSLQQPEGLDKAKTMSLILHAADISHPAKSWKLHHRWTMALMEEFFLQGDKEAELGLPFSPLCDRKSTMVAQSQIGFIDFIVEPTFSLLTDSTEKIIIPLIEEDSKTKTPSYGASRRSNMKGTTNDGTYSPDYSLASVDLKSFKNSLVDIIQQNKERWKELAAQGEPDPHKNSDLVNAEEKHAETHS
T3 sequence (Q14123 whole entry): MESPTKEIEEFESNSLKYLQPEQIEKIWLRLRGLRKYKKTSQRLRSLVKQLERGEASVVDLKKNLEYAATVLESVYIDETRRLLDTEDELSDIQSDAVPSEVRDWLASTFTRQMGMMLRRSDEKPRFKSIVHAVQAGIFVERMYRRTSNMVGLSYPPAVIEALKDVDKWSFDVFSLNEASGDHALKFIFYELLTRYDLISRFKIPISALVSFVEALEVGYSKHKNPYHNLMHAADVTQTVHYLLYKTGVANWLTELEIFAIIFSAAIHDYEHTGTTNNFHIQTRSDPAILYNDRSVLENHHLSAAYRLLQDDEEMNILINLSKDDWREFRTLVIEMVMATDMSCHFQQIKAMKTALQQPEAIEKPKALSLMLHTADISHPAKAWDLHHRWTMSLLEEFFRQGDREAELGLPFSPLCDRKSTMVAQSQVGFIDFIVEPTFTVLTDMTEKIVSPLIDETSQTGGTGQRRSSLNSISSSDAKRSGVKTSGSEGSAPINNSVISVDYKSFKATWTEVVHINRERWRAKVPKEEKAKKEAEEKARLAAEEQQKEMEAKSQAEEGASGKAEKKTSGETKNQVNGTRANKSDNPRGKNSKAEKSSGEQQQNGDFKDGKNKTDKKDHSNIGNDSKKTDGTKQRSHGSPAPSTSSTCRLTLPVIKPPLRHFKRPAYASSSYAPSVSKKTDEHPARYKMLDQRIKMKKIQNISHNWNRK

With `CN1C(=O)c2[nH]c(Cc3ccc(C(F)(F)F)cc3)nc2N2C1=N[C@@H]1CCC[C@@H]12` [SCH 51866], the half-inhibitory concentration (IC50) (in general, the concentration that inhibits the measured activity by half) with PDE 1 was 100 nM. Besides, the “inhibition of peptide stimulated activity of PDE1A bound to calmodulin beads” value in assay [1] (PDE1A bound to calmodulin beads, Gαt-rod peptide stimulated) is “also inhibited peptide stimulated activity of PDE1A bound to calmodulin beads”. For the same compound, the “inhibition of peptide stimulated PDE activity” value in assay [1] (fractions 6 and 11, 1 μM cGMP, 100 μM Gαt-rod peptide) is listed as “also inhibited peptide stimulated activity”. Moreover, the “inhibition of calmodulin stimulated PDE activity” value in assay [1] (fractions 6 and 11, 1 μM cGMP, 1 mM CaCl2 and 4 μg/ml CaM) stood at 90%.

On to “Gαt-rod peptide: peptide corresponding to the PDE effector-interaction-region of rod transducin (residues 293–314 of transducin Gα) (EDAGNYIKVQFLELNMRRDVKE)”, for which the “stimulation of PDE activity” value in assay [1] (fractions 6 and 11, 100 μM peptide, 1 μM cGMP) was “stimulated”. The “stimulation of recombinant PDE activity” value with PDE1A1, with PDE1A2 and in the assay with PDE1C3 was “stimulated” throughout. Also, the “stimulation of cGMP hydrolytic activity” value in assay [2] (first peak, fractions 6–7) is reported as “activated”; in assay [2] (fourth peak, fractions 21–23), “not stimulated above the basal level”; in assay [2] (second peak, fractions 10–12) it was “activated”; in assay [2] (third peak, fractions 13–15), “greatest activity when stimulated”. In addition, the “stimulation of cAMP hydrolysis” value in assay [2] (first three peaks (fractions 6–7; 10–12; 13–15)) is given as “show stimulation”; in assay [2] (fourth peak, fractions 19–23 (PDE4)), “neither Ca^2+/CaM nor Gαt-rod peptide dependent”.
